Experimental data as given in patent US20220142165A1 (priority 2019, published 2022).

Tests used:
[1] = tested on: tomato late blight pathogen (Phylophihora infeslans); assay: whole plant or invertebrate; type: in vivo; conditions: Phytophthora infestans, 96 h, read-out: Control value
[2] = tested on: grape downy mildew pathogen (Plasmopara viticola); assay: Grape downy mildew control test (Test Example 2); type: in vivo; conditions: Plasmopara viticola, foliar, 168 h; 100 ppm by mass, sprayed on grape leaf disc (variety Chardonnay) before inoculation; blotch area ratio seven days after inoculation, 20° C.
Procedure: 5 parts by mass of the compound according to the present invention, 93.5 parts by mass of dimethylformamide, and 1.5 parts by mass of polyoxyethylene alkylaryl ether were mixed and dissolved to prepare an emulsion (I) containing 5% by mass of an active ingredient.
The control value was calculated according to the following formula.
Control value (%)=100−{blotch area ratio in treated area/blotch area ratio in untreated area}×100
Water was added to the emulsion (I) such that the concentration of the heterocyclic compound became 100 ppm by mass, and then the heterocyclic compound was dissolved therein to obtain a pharmaceutical solution. Then, the pharmaceutical solution was sprayed on a leaf disc of grape (variety “Chardonnay”) placed on agar in a 6-well plate. After air-drying, the leaf disc on which the pharmaceutical solution was sprayed was inoculated with zoosporangia of grape downy mildew pathogen (Plasmopara viticola) in a suspension by spraying the suspension thereon (treated area). As a control, a leaf disc on which no pharmaceutical solution was sprayed was inoculated in the same way as mentioned above (untreated area). The resultant leaf discs were left in a moist chamber at 20° C. Seven days after inoculation, the grape leaf discs were visually observed to measure the blotch area ratio to calculate the control value.

Compound | pest or weed control at 125 ppm [1] [%] | melting point [°C] | pest or weed control at 100 ppm [2] [%]
CO/N=C/c1cc(C(Oc2cc3scnc3cc2F)c2nnco2)ncc1F (stereo not drawn) [b-57] | ≥ 75 | 150 to 151 | ≥ 75
Fc1cnc(C(Oc2ccc3ncsc3c2)c2nnco2)cc1/C=N/OCC1CC1 (stereo not drawn) [b-50] | ≥ 75 | 129 to 131 | ≥ 75
CO/N=C/c1ccnc(C(Oc2cc(F)c3ncsc3c2)c2nnco2)c1 (stereo not drawn) [b-22] | ≥ 75 | 113 to 148 | ≥ 75
C=Cc1cc(OC(c2cc(/C=N/OC)c(F)cn2)c2nnco2)cc2sc(C)nc12 (stereo not drawn) [b-48] | ≥ 75 | 116 to 119 | ≥ 75
CCO/N=C/c1ccnc(C(Oc2ccc3ncsc3c2)c2nnco2)c1 (stereo not drawn) [b-17] | ≥ 75 | 113 to 114 | ≥ 75
CO/N=C/c1cc(C(Oc2cc(Br)c3nc(C)sc3c2)c2nnco2)ncc1F (stereo not drawn) [b-42] | ≥ 75 | 70 to 75 | ≥ 75
Fc1ccc(C(Oc2ccc3nnsc3c2)c2nnco2)nc1 (stereo not drawn) [b-10] | ≥ 75 | 141 to 142 | ≥ 75
CO/N=C/c1cc(C(Oc2ccc3ncsc3c2)c2nnco2)ncc1C#N (stereo not drawn) [b-40] | ≥ 75 | 129 to 131 | ≥ 75
CNc1nc2ccc(OC(c3cc(/C=N/OC)c(F)cn3)c3nnco3)cc2s1 (stereo not drawn) [b-74] | ≥ 75 | 181 to 182 | ≥ 75
Clc1ccc(C(Oc2ccc3nnsc3c2)c2nnco2)nc1 (stereo not drawn) [b-12] | ≥ 75 | 133 to 134 | ≥ 75
CO/N=C/c1ccnc(C(Oc2cc(C)c3ncsc3c2)c2nnco2)c1 (stereo not drawn) [b-23] | ≥ 75 | 146 to 148 | ≥ 75
CO/N=C/c1cc(C(Oc2ccc3nc(C4CC4)sc3c2)c2nnco2)ncc1F (stereo not drawn) [b-76] | ≥ 75 | 103 to 104 | ≥ 75
CO/N=C/c1cc(C(Oc2ccc3nc(CF)sc3c2)c2nnco2)ncc1F (stereo not drawn) [b-66] | ≥ 75 | 133 to 134 | ≥ 75
CO/N=C/c1cc(C(Oc2ccc3nnsc3c2)c2nnco2)ncc1F (stereo not drawn) [b-58] | ≥ 75 | 134 to 135 | ≥ 75
CO/N=C/c1cc(C(Oc2cc(Cl)c3ncsc3c2)c2nnco2)ncc1F (stereo not drawn) [b-55] | ≥ 75 | 153 to 154 | ≥ 75
CO/N=C/c1cc(C(Oc2cc(OC)c3ncsc3c2)c2nnco2)ncc1F (stereo not drawn) [b-84] | ≥ 75 | 103 to 104 | ≥ 75
